The values below are quoted from earlier work in patent US20170143768A1, “OINTMENT FOR THE TREATMENT OF HEMORRHOIDAL DISEASE” (Global Treat SRL, priority 2014, published 2017).

Consider `CC12CCC(CC1=O)C2(C)C` (stereo not shown) [camphor], for which the solubility in water result is “water-soluble”.
